Data taken from US20230142126A1, “METHODS AND COMPOSITIONS FOR THE TREATMENT OF VIRAL DISEASES” (priority 2020, published 2023).
pEC50: −log10 of the molar value. “And” between values parts separate entries of the source, which are not always exact repeats. Equal entries are not always repeated. Where two headings read alike, the source gives them in different places.

Columns and labels:
Rhinovirus 14 (HRV 14) = experiment: CPE antiviral assay (MTS), Rhinovirus 14 in H1 HeLa cells; format: cell-based, strain 1059; settings: 33° C., CPE 4 days, at the concentrations tested
Measles = experiment: CPE antiviral assay (MTS), Measles in MRC-5 cells; format: cell-based, Measles Virus (Edmonston); settings: CPE 10 days, at the concentrations tested
Method: (§1) Viruses and cells were mixed in the presence of Balicatib (HB-121) and incubated for the assay duration as specified in Table 1. […] An antiviral effect or cytoprotective effect was considered to be observed when therapeutic agent (Balicatib or positive control indicated in Table 1) prevented virus replication. A standardized plate format was used for cytoprotective assays. […] Samples were evaluated for antiviral efficacy with triplicate measurements to determine cytotoxicity, if detectable. […]
(§2) At assay termination, the assay plates were stained with the soluble tetrazolium-based dye MTS (CellTiter®96 Reagent, Promega) to determine cell viability and quantify compound toxicity. MTS is metabolized by the mitochondrial enzymes of metabolically active cells to yield a soluble formazan product, allowing the rapid quantitative analysis of cell viability and compound cytotoxicity. […] Adhesive plate sealers were used in place of the lids, the sealed plates were inverted several times to mix the soluble formazan product and the plate was read spectrophotometrically at 490/650 nm with a Molecular Devices SpectraMax i3 plate reader. […]

Coxsackie (A7) (CoxA7) = experiment: CPE antiviral assay (MTS), Coxsackie A7 in LLC-MK2 7.1 cells; format: cell-based; settings: CPE 4 days, at the concentrations tested
[1] = test system: SARS-CoV-2 hCoV-19/USA/WA1/2020; format: cell-based
[2] = test system: Dengue virus, serotype 2 (DENV2); experiment: CPE antiviral assay (MTS), Dengue virus in BHK-21 cells; format: cell-based, New Guinea C; settings: CPE 5 days, at the concentrations tested
Method: as §1, §2

in vitro = settings: human
Enterovirus 71 = experiment: CPE (cytoprotection) antiviral assay with MTS readout, Enterovirus 71 in RD cells; format: cell-based, Enterovirus (EV-71(H)), strain 71H; settings: for pEC50: 50% inhibition of virus replication, read-out: EC 50% (EC50)
Method: Viruses and cells were mixed in the presence of Balicatib (HB-121) and incubated for the assay duration as specified in Table 1. […] An antiviral effect or cytoprotective effect was considered to be observed when therapeutic agent (Balicatib or positive control indicated in Table 1) prevented virus replication. A standardized plate format was used for cytoprotective assays. Each plate contained cell control wells (cells only), virus control wells (cells plus virus), therapeutic agent cytotoxicity wells (cells plus therapeutic agent only), therapeutic agent colorimetric control wells (therapeutic agent only), background control wells (media only), as well as experimental wells (therapeutic agent plus cells plus virus). Samples were evaluated for antiviral efficacy with triplicate measurements to determine cytotoxicity, if detectable. […] Interferon (IFN) was used as positive controls in the assays were noted as IU/mL (bioactivity defined by International Units/mL was used from the certificate of analysis information provided by the vendor, PBL Assay Science, Piscataway, NJ). In Table 2, fields labeled as “Drug 1” or “Drug 2” indicate Cells + Virus + Drug; fields labeled as “Tox 1” or “Tox 2” indicate Cells + Drug 1 or Drug 2, respectively (toxicity tested in duplicate); Cells labeled as “Color 1” or “Color 2” = Media + Drug 1 or Drug 2, respectively (colorimetric background, no cells).
At assay termination, the assay plates were stained with the soluble tetrazolium-based dye MTS (CellTiter®96 Reagent, Promega) to determine cell viability and quantify compound toxicity. MTS is metabolized by the mitochondrial enzymes of metabolically active cells to yield a soluble formazan product, allowing the rapid quantitative analysis of cell viability and compound cytotoxicity. […] At termination of the assay, 10-25 µL of MTS reagent was added per well (10% final concentration based on volume) and the microtiter plates were then incubated for 2-3 hours at 37° C., (except Rhinovirus assay plates, which were incubated at 33° C.) 5% CO2 to assess cell viability. Adhesive plate sealers were used in place of the lids, the sealed plates were inverted several times to mix the soluble formazan product and the plate was read spectrophotometrically at 490/650 nm with a Molecular Devices SpectraMax i3 plate reader.
Using an in-house computer program, the CPE data analysis was conducted and included the calculation of EC50 (50% inhibition of virus replication), EC95 (95% inhibition of virus replication), CC50 (50% cytotoxicity), CC95 (95% cytotoxicity) and selectivity index values (SI = CC/EC; also referred to as Antiviral Index or AI).
The minimum inhibitory drug concentration that reduced plaque formation by 50% (EC50) and the minimum drug concentration that inhibited cell growth by 50% (CC50) were calculated. The selectivity index (SI) for each active compound was determined by dividing the CC50 by the EC50.

Parainfluenza Type 3 = experiment: CPE antiviral assay (MTS), Parainfluenza in LLC-MK2 7.1 cells; format: cell-based, Parainfluenza Type 3 C243; settings: CPE 7 days, at the concentrations tested
Method: as §1, §2

Influenza B (Flu B.Bris) = experiment: CPE antiviral assay (MTS), Influenza B in MDCK cells; format: cell-based; settings: CPE 3 days, at the concentrations tested
[3] = test system: Respiratory syncytial virus (RSV); experiment: CPE antiviral assay (MTS), RSV in HEp-2 cells; format: cell-based, Long; settings: CPE 5 days, at the concentrations tested
Method: as §1, §2

Influenza A (Flu A. Cal) = experiment: CPE antiviral assay (MTS), Influenza A in MDCK cells; format: cell-based, A/California/07/2009; settings: CPE 3 days, at the concentrations tested
Method: as §1, §2

[4] = Plasma concentration of Balicatib after oral dosing, based on human clinical dosing; settings: 400 mg oral dosing, EC50 against SARS-CoV-2
HIV-1 (IIIB) = experiment: CPE antiviral assay (MTS), HIV-1 in MT-4 cells; format: cell-based; settings: CPE 6 days, at the concentrations tested
Method: as §1, §2

[5] = test system: SARS-CoV-2 (strain: BEI_USA-WA1/2020); experiment: microbe, parasite or virus in culture; format: cell-based; settings: Calu-3, 4 h pretreatment
SARS-CoV-2 = experiment: microbe, parasite or virus in culture; format: cell-based; settings: for EC90 / pEC50: Calu-3, plaque assay; for EC90: estimated
Adenovirus (Type 5) = experiment: CPE antiviral assay (MTS), Adenovirus in HeLa cells; format: cell-based; settings: CPE 6 days, at the concentrations tested
[6] = Cytotoxicity assay (MTS dye reduction) in the cells of the Enterovirus assay; format: cell-based; settings: human
Method: (§3) Viruses and cells were mixed in the presence of Balicatib (HB-121) and incubated for the assay duration as specified in Table 1. […] An antiviral effect or cytoprotective effect was considered to be observed when therapeutic agent (Balicatib or positive control indicated in Table 1) prevented virus replication. A standardized plate format was used for cytoprotective assays. Each plate contained cell control wells (cells only), virus control wells (cells plus virus), therapeutic agent cytotoxicity wells (cells plus therapeutic agent only), therapeutic agent colorimetric control wells (therapeutic agent only), background control wells (media only), as well as experimental wells (therapeutic agent plus cells plus virus). Samples were evaluated for antiviral efficacy with triplicate measurements to determine cytotoxicity, if detectable. […] Interferon (IFN) was used as positive controls in the assays were noted as IU/mL (bioactivity defined by International Units/mL was used from the certificate of analysis information provided by the vendor, PBL Assay Science, Piscataway, NJ). […]
as §2
(§4) Cells were seeded at 2,500 to 40,000 cells per well in 96-well plates in replication medium as specified in Table 3. […] After the assay readout (duration) as specified in Table 1, cell viability was determined using MTS dye reduction. […]

RD cells = experiment: as above; format: cell-based; settings: RD cells, 4 days
Method: as §3, §2, §4

[7] = Severe acute respiratory syndrome coronavirus 2

## CCCN1CCN(c2ccc(C(=O)NC3(C(=O)NCC#N)CCCCC3)cc2)CC1 [Balicatib]
Rhinovirus 14 (HRV 14)
  antiviral efficacy: not effective
Measles
  antiviral efficacy: not effective
Coxsackie (A7) (CoxA7)
  antiviral efficacy: not effective
[1]; 0.3 µM (lowest test concentration), A549-hACE2, MOI 0.1, 24 hours
  titer reduction in virus titer (TCID50): > 3 log
[1]; 5 µM, A549-hACE2, MOI 0.1, 24 hours
  titer reduction vs virus without Balicatib (TCID50): more than 6 log
[1]; A549-hACE2 cells, 24 hours
  reduction of SARS-CoV-2 WA1/2020: significant reduction
[2]
  antiviral efficacy: not effective
Calu-3 human cells; 100 µM (Table 6)
  Cell Appearance: No CPEs
Calu-3 human cells; 100 µM, 24 hr, 98.7% viability at seeding
  Viability (%) at 24 hr time point: 71.0% and 72.1%
Calu-3 human cells; 100 µM, Calu-3
  effect on cell growth: little to no effect on cell growth
  effect on cellular viability: does not alter cellular viability
Calu-3 human cells; 100 µM, seeded at 2.0E5 per well, 24 hr
  Count (cells/ml) at 24 hr time point: 1.8e5 cells/ml and 1.6e5 cells/ml
In vitro
  CC50: > 100 µM
Enterovirus 71; 25% inhibition of virus replication, RD cells, CPE 4 days
  EC 25%: 5.85 µM
Enterovirus 71; RD cells, CPE 4 days, listed as HB-121
  pEC50: 4.66
Enterovirus 71; 95% inhibition of virus replication, RD cells, CPE 4 days
  EC 95% (EC95): >30.0 µM
Enterovirus 71; Enterovirus A, RD, 96 h, RD cells, CPE 4 days
  pEC50: ~4.70
Enterovirus 71; SI = CC50/EC50
  Selectivity Index (SI) 50%: >1.36
Enterovirus 71; SI = CC/EC at 25%
  Selectivity Index (SI) 25%: >5.13
Parainfluenza Type 3
  antiviral efficacy: not effective
Influenza B (Flu B.Bris)
  antiviral efficacy: not effective
[3]
  antiviral efficacy: not effective
Influenza A (Flu A. Cal)
  antiviral efficacy: not effective
[4]
  time plasma concentration is above EC50: 16 to 20 h
HIV-1 (IIIB)
  antiviral efficacy: not effective
[5]; Severe acute respiratory syndrome coronavirus 2, MOI 0.01, 48 h post-infection, % infected cells (FIG. 1), read-out: approximate EC50
  pEC50: 6.30 to 6.60
SARS-CoV-2; 100 nM, 0.1 µM
  Overall % Inhibition (average of two experiments) Combined: 57.75%
SARS-CoV-2; 10 µM
  Overall % Inhibition (average of two experiments) Combined: 99.4%
SARS-CoV-2; Calu-3 cells, calculated from CC50 and EC50
  Selectivity Index (SI): > 300
SARS-CoV-2; Severe acute respiratory syndrome coronavirus 2, Calu-3, 100 nM, read-out: Overall % Inhibition (average of two experiments) Combined
  inhibition at 0.1 µM: ~57%
SARS-CoV-2; Severe acute respiratory syndrome coronavirus 2, Calu-3, 300 nM, read-out: Overall % Inhibition (average of two experiments) Combined
  inhibition at 0.3 µM: 90%
SARS-CoV-2; Severe acute respiratory syndrome coronavirus 2, Calu-3, 1 µM, read-out: Overall % Inhibition (average of two experiments) Combined
  inhibition at 1 µM: ~68%
SARS-CoV-2; Severe acute respiratory syndrome coronavirus 2, Calu-3, 3 µM, read-out: Overall % Inhibition (average of two experiments) Combined
  inhibition at 3 µM: ~100%
SARS-CoV-2; Severe acute respiratory syndrome coronavirus 2, Calu-3, 10 µM, read-out: Overall % Inhibition (average of two experiments) Combined
  inhibition at 10 µM: ~100%
SARS-CoV-2; Severe acute respiratory syndrome coronavirus 2, Calu-3, 30 µM, read-out: Overall % Inhibition (average of two experiments) Combined
  inhibition at 30 µM: ~100%
SARS-CoV-2; Severe acute respiratory syndrome coronavirus 2, Calu-3, 72 h, 100 nM, MOI 0.1, 72 h, read-out: % Inhibition Experiment 1
  inhibition at 0.1 µM: 97.3%
SARS-CoV-2; Severe acute respiratory syndrome coronavirus 2, Calu-3, 72 h, 100 nM, MOI 0.1, 72 h, read-out: % Inhibition Experiment 2
  inhibition at 0.1 µM: 18%
SARS-CoV-2; Severe acute respiratory syndrome coronavirus 2, Calu-3, 72 h, 300 nM, MOI 0.1, 72 h, read-out: % Inhibition Experiment 2
  inhibition at 0.3 µM: 90%
SARS-CoV-2; Severe acute respiratory syndrome coronavirus 2, Calu-3, 72 h, 1 µM, MOI 0.1, 72 h, read-out: % Inhibition Experiment 1
  inhibition at 1 µM: 64%
SARS-CoV-2; Severe acute respiratory syndrome coronavirus 2, Calu-3, 72 h, 1 µM, MOI 0.1, 72 h, read-out: % Inhibition Experiment 2
  inhibition at 1 µM: 72.5%
SARS-CoV-2; Severe acute respiratory syndrome coronavirus 2, Calu-3, 72 h, 3 µM, MOI 0.1, 72 h, read-out: % Inhibition Experiment 2
  inhibition at 3 µM: 100%
SARS-CoV-2; Severe acute respiratory syndrome coronavirus 2, Calu-3, 72 h, 10 µM, MOI 0.1, 72 h, read-out: % Inhibition Experiment 1
  inhibition at 10 µM: 98.8%
SARS-CoV-2; Severe acute respiratory syndrome coronavirus 2, Calu-3, 72 h, 10 µM, MOI 0.1, 72 h, read-out: % Inhibition Experiment 2
  inhibition at 10 µM: 100%
SARS-CoV-2; Severe acute respiratory syndrome coronavirus 2, Calu-3, 72 h, 30 µM, MOI 0.1, 72 h, read-out: % Inhibition Experiment 2
  inhibition at 30 µM: 100%
SARS-CoV-2; [7]
  EC90: 1 to 3 µM
SARS-CoV-2; Severe acute respiratory syndrome coronavirus 2, estimated from two studies
  pEC50: 6.22 to 7.30
Adenovirus (Type 5)
  antiviral efficacy: not effective
[6]
  CC50 at 4 days: > 30 µM
RD cells; 25% cytotoxicity
  CC 25%: > 30.0 µM
RD cells; 95% cytotoxicity
  CC 95% (CC95): > 30.0 µM

## C[C@@H]1CS/C(=N\NC(=O)C(=O)[C@@H](NC(=O)C2CCCCCC2)C2CCOCC2)N1C [ONO-5334]
[5]; MOI 0.01, 48 h post-infection (FIG. 2, FIG. 3)
  antiviral activity (percentage of virus infected cells vs concentration): demonstrated antiviral activity
SARS-CoV-2; 1 µM (Table 7)
  % Inhibition: 79%
SARS-CoV-2; 10 µM (Table 7)
  % Inhibition: 100%
SARS-CoV-2; estimated from 1 and 10 µM
  pEC50: > 6.00

## CC(C)(F)C[C@H](N[C@@H](c1ccc(-c2ccc(S(C)(=O)=O)cc2)cc1)C(F)(F)F)C(=O)NC1(C#N)CC1 [Odanacatib]
SARS-CoV-2; Severe acute respiratory syndrome coronavirus 2, Calu-3, 1 µM (Table 7), read-out: % Inhibition
  inhibition at 1 µM: 48.4%
SARS-CoV-2; Severe acute respiratory syndrome coronavirus 2, Calu-3, 10 µM (Table 7), read-out: % Inhibition
  inhibition at 10 µM: 97.1%
SARS-CoV-2; [7]
  EC90: 1 to 10 µM
SARS-CoV-2; Severe acute respiratory syndrome coronavirus 2, estimated from 1 and 10 µM
  pEC50: ~6.00
